Several values for one entry are separate records, joined by “and”; a condition that tells them apart may be missing. Equal values may be shown once.
Tested on: 653999-131-R-J2-PDC complex spheroids, growth inhibition
Test: Anticancer human tumor 653999-131-R-J2-PDC patient-derived lung adenocarcinoma cell line growth inhibition [RAS]
Details: for viability, T/C: stronger effect = lower value; active = viability on the fitted dose curve at most 10% of control; inactive = the rest
Summary of the method: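 Agents were tested in combination matrices in half-log decrements from a top concentration at or near clinical Cmax (10 microM if undetermined). Targets were multi-cell spheroids of tumour lines plus HUVEC and MSC stromal cells.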
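Note: spheroids exposed to the agents for seven days before the readout.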

C=CC(=O)Nc1cc(Nc2nccc(-c3cn(C)c4ccccc34)n2)c(OC)cc1N(C)CCN(C)C + CCn1c(-c2cccnc2C(C)OC)c2c3cc(ccc31)N1CCOC(CC(NC(=O)C(C(C)C)N(C)C(=O)C3(F)CCN(C(=O)C#CC(C)(C)N(C)C)CC3)C(=O)N3CCCC(N3)C(=O)OCC(C)(C)C2)C1
697 nM: IC50 (curve of first compound, second compound 0.3 µM)
inactive: viability, T/C (second compound 0.000949 µM, first compound 0.00316 µM) 86.2% | viability, T/C (second compound 0.000949 µM, first compound 0.01 µM) 82.3% | viability, T/C (second compound 0.000949 µM, first compound 0.0316 µM) 97.7% | viability, T/C (second compound 0.000949 µM, first compound 0.1 µM) 64.7% | viability, T/C (second compound 0.000949 µM, first compound 0.316 µM) 64.2% | viability, T/C (second compound 0.000949 µM, first compound 1 µM) 49.2% | viability, T/C (second compound 0.003 µM, first compound 0.00316 µM) 90.1% | viability, T/C (second compound 0.003 µM, first compound 0.01 µM) 95.8% | viability, T/C (second compound 0.003 µM, first compound 0.0316 µM) 86.3% | viability, T/C (second compound 0.003 µM, first compound 0.1 µM) 67.1% | viability, T/C (second compound 0.003 µM, first compound 0.316 µM) 52.5% | viability, T/C (second compound 0.003 µM, first compound 1 µM) 37.8% | viability, T/C (second compound 0.00949 µM, first compound 0.00316 µM) 80.5% | viability, T/C (second compound 0.00949 µM, first compound 0.01 µM) 84.8% | viability, T/C (second compound 0.00949 µM, first compound 0.0316 µM) 93.2% | viability, T/C (second compound 0.00949 µM, first compound 0.1 µM) 85.7% | viability, T/C (second compound 0.00949 µM, first compound 0.316 µM) 55% | viability, T/C (second compound 0.00949 µM, first compound 1 µM) 45% | viability, T/C (second compound 0.03 µM, first compound 0.00316 µM) 87.1% | viability, T/C (second compound 0.03 µM, first compound 0.01 µM) 97.6% | viability, T/C (second compound 0.03 µM, first compound 0.0316 µM) 84.2% | viability, T/C (second compound 0.03 µM, first compound 0.1 µM) 82.5% | viability, T/C (second compound 0.03 µM, first compound 0.316 µM) 52.6% | viability, T/C (second compound 0.03 µM, first compound 1 µM) 43.6% | viability, T/C (second compound 0.0949 µM, first compound 0.00316 µM) 79.4% | viability, T/C (second compound 0.0949 µM, first compound 0.01 µM) 76.5% | viability, T/C (second compound 0.0949 µM, first compound 0.0316 µM) 115% | viability, T/C (second compound 0.0949 µM, first compound 0.1 µM) 89.8% | viability, T/C (second compound 0.0949 µM, first compound 0.316 µM) 59.6% | viability, T/C (second compound 0.0949 µM, first compound 1 µM) 46.1% | viability, T/C (second compound 0.3 µM, first compound 0.00316 µM) 78.7% | viability, T/C (second compound 0.3 µM, first compound 0.01 µM) 104% | viability, T/C (second compound 0.3 µM, first compound 0.0316 µM) 94.8% | viability, T/C (second compound 0.3 µM, first compound 0.1 µM) 94.1% | viability, T/C (second compound 0.3 µM, first compound 0.316 µM) 61.7% | viability, T/C (second compound 0.3 µM, first compound 1 µM) 44.6%
318 nM: IC50 (curve of first compound, second compound 0.003 µM)
450 nM: IC50 (curve of first compound, second compound 0.03 µM)
717 nM: IC50 (curve of first compound, second compound 0.0949 µM)
> 1000 nM: IC50 (curve of first compound, second compound 0.000949 µM)
562 nM: IC50 (curve of first compound, second compound 0.00949 µM)

C=CC(=O)Nc1cc(Nc2nccc(-c3cn(C)c4ccccc34)n2)c(OC)cc1N(C)CCN(C)C
inactive: viability, T/C (compound 0.00316 µM) 98% [middle of 4 runs] | viability, T/C (compound 0.01 µM) 89.8% [middle of 4 runs] | viability, T/C (compound 0.0316 µM) 94.7% [middle of 4 runs] | viability, T/C (compound 1 µM) 62.9% [middle of 4 runs]
> 1000 nM and 291 nM: IC50 (curve of compound)

CC(C)NCC(C(=O)N1CCN(c2ncnc3c2C(C)CC3O)CC1)c1ccc(Cl)cc1 (stereo not drawn)
inactive: viability, T/C (compound 0.0316 µM) 96.7% [middle of 4 runs] | viability, T/C (compound 0.1 µM) 96.7% [middle of 4 runs] | viability, T/C (compound 0.316 µM) 77.1% [middle of 4 runs] | viability, T/C (compound 1 µM) 54.2% [middle of 4 runs] | viability, T/C (compound 3.16 µM) 46.6% [middle of 4 runs] | viability, T/C (compound 10 µM) 34.9% [middle of 4 runs]
